Experiment: Hydrolytic stability in buffers of varying pH by HPLC
Type: physicochemical
Conditions: room temperature
Method: To assess the relative stability of the thiolactone and homoserine lactone moieties, stability studies were performed as reported previously,^53 with the following changes. Compounds RN22 and E22 (50 μM) were dissolved in either 1 mM 2-(N-morpholino)-ethanesulfonic acid (MES) buffer at pH 6, or 1 mM tris(hydroxymethyl)-aminomethane (TRIS) buffer at pH 7, pH 8, or pH 9. Solutions were placed static at room temperature, and 150 μL aliquots were taken every two hours for eight hours, then again at 24 hours. Samples were immediately separated via HPLC, and the area under the curve (AUC) at 220 nm was calculated and compared to the area at t=0. […] Degradation of both compounds to the hydrolysis product was confirmed via mass spectrometry of the resulting byproduct peak.
P. aeruginosa media is observed to become more alkaline over time, making the hydrolytic instability of the homoserine lactone head group a concern in developing AHL-type modulators for use in the wild-type organism. […] To evaluate their stability in a more direct assay, the stability of thiolactone RN22 relative to its lactone homolog E22 was monitored over time and at varying pH values using HPLC. The amount of compound RN22 remaining over 24 h was compared to E22. […] Degradation products were confirmed to be the hydrolyzed lactone head groups via mass spectroscopy.

SMILES: O=C(COc1ccc(I)cc1)N[C@H]1CCSC1=O [RN22]
- half-life at 50 μM (pH 6, 1 mM MES buffer): 44 days
- half-life at 50 μM (pH 7, 1 mM TRIS buffer): 47.2 days
- half-life at 50 μM (pH 8, 1 mM TRIS buffer): 9.88 days
- half-life at 50 μM (pH 9, 1 mM TRIS buffer): 2.18 days
